Assay results reported in paper PMC9008879, “Inhibition of CYP3A-mediated Midazolam Metabolism by Kaempferia Parviflora” (Food Safety, 2022).

Key:
[1] = system: CYP3A; test: Direct inhibition of CYP3A-mediated MDZ 1'-hydroxylation activity in human liver microsomes; format: in vitro ADME; details: HLM, 10 µM MDZ; 5,7-DMF 0.03-30 µM, 3,5,7,3',4'-PMF 0.02-20 µM, no pre-incubation
Method: An in vitro study was carried out to investigate the inhibitory effects of KP extract, 5,7-DMF, and 3,5,7,3’,4’-PMF on CYP3A-mediated MDZ 1’-hydroxylation (MDZ 1’-OH) activity.
The reaction mixtures, each with a total volume of 200 µL, consisting of 100 µg pooled HLM, 10 µM MDZ, and a nicotinamide adenine dinucleotide phosphate (NADPH)-generating system (1 mM NADPH, 8 mM glucose 6-phosphate, and 0.5U glucose 6-phosphate dehydrogenase) in 80 mM phosphate buffer (pH 7.4), were incubated at 37°C for 5 min in the presence of KP extract (40-80 µg/ml), 5,7-DMF (0.03-30 µM), or 3,5,7,3’,4’-PMF (0.02-20 µM). […] After centrifugation at 20,800 × g for 10 min at 4°C, the supernatant was injected into an HPLC apparatus equipped with a CAPCELLPAK C18 SG120 column (4.6 mm × 250 mm, Shiseido) and 1’-hydroxymidazolam was analyzed according to a previous report[20]^,[21]^). Control activity was determined under the same conditions with a reaction mixture containing water, 1% methanol, or 1% acetonitrile instead of KP extract, 5,7-DMF, or 3,5,7,3’,4’-PMF. Results were expressed as a percentage of each control activity. The inhibition mode and inhibition constant (Ki) values of KP extract on MDZ 1’-OH activity were calculated using nonlinear regression analysis using GraphPad Prism 7.03 (GraphPad Software Inc., La Jolla, CA, USA).

[2] = system: CYP3A; test: Pre-incubation study (time-dependent / mechanism-based inhibition) of MDZ 1'-OH activity in human liver microsomes; format: in vitro ADME; details: for Change of MDZ 1'-OH activity after pre-incubation: HLM, pre-incubation 0-30 min with or without NADPH, KP extract 120 µg/ml, 5,7-DMF 30 µM, 3,5,7,3',4'-PMF 20 µM; for KI (inactivation) / kinact / kinact/KI: human, human liver microsomes, probe midazolam (MDZ) 10 µM, 1'-hydroxylation, HLM + NADPH, 10-fold dilution; for KI (inactivation): pre-incubation 5-30 min, read-out: KI (inhibitor concentration causing half-maximal inactivation); for kinact / kinact/KI: pre-incubation; for kinact: read-out: kinact (maximal inactivation rate constant) (converted); for kinact/KI: read-out: kinact/KI (efficiency of inactivation) (converted)
Method: Pre-incubation studies were performed to determine whether the metabolic intermediates produced by KP ingredients cause an MBI that inactivates CYP3A. KP extract (120 µg/ml), 5,7-DMF (30 µM), or 3,5,7,3’,4’-PMF (20 µM) was pre-incubated with HLM at 37°C for 10, 20, or 30 min, in the presence or absence of a NADPH-generating system. After the pre-incubation step, MDZ was added, and MDZ 1’-OH activity was assayed as described above.
In addition, another assay was designed to minimize the direct inhibition of CYP3A by KP ingredients by diluting the contents of the inactivation mixture 10-fold. As a primary incubation mixture, KP extract (30-120 µg/ml), 5,7-DMF (6-30 µM), or 3,5,7,3’,4’-PMF (5-20 µM) were pre-incubated in the presence of HLM and a NADPH-generating system at 37°C. Pre-incubation times were 5, 10, 15, or 20 min for KP extract, and 5, 10, 20, or 30 min for 5,7-DMF and 3,5,7,3’,4’-PMF. At determined time points, an aliquot of 50 µL of the primary reaction mixture was moved to 450 µL of the secondary incubation mixture containing 10 µM MDZ, and further incubated for 5 min. The oxidation of MDZ was analyzed as described above.
The decrease in the natural logarithm of the % residual MDZ 1’-OH activity against pre-incubation time was plotted for each inhibitor concentration, and the apparent inactivation rate constant (Kobs) values were described as the negative slopes of the lines. The maximal inactivation rate constant (kinact) and the inhibitor concentration causing half-maximal inactivation (KI) were estimated by double-reciprocal plot of the Kobs against the inhibitor concentration. The efficiency of inactivation was calculated as the ratio of kinact to KI.

[3] = system: CYP3A; set-up: method as in PMID 29550915; details: mice, 5,7-DMF for ten days; cited from earlier work
[4] = system: CYP3A4; set-up: method as in PMID 17709371; details: HLM and recombinant microsomes; cited from earlier work

Row | Structure (SMILES) | Direct inhibition of MDZ 1'-OH activity [1] | Change of MDZ 1'-OH activity after pre-incubation [2] | KI (inactivation) [2] [µM] | kinact [2] [s⁻¹] | kinact/KI [2] [M⁻¹ s⁻¹] | AUC of MDZ [3] | Elimination half-life (t1/2) of MDZ [3] | Hepatic CYP3A expression [3] | Metabolizing CYP enzymes [4]
1 | COc1cc(OC)c2c(=O)c(OC)c(-c3ccc(OC)c(OC)c3)oc2c1 [3,5,7,3’,4’-PMF, 3,5,7,3’,4’-pentamethoxyflavone] | did not inhibit | time- and NADPH-dependent decrease | 25.5 | 2.67e-05 | 1.05 |  |  |  | 
2 | COc1cc(OC)c2c(=O)cc(-c3ccccc3)oc2c1 [5,7-DMF, 5,7-dimethoxyflavone] | did not inhibit | time- and NADPH-dependent decrease | 10.7 | 0.000433 | 40 | increased | increased | decreased | not metabolized by CYP3A4, but by CYP1A1 and CYP1A2
